Test systems include DMS-114; DMS-273; HOP-18; KM-20L2; M19-MEL; RXF 631; SNB-78; LXFL 529; XF498.
Common to all, as to experiment: inhibition of tumour cell growth, NCI panel, 48 h

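Cultured in 96-well plates, cells were exposed to test compound for 48 hours across five concentrations. GI50 = concentration required for 50% inhibition of growth.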 Activity calls are given as the source filed them. Cut-off read from the data, not from the text of the source: active = GI50 up to about 1.1 µM and inactive = higher.

Regarding `c1ccc(C(c2ccccc2)c2cccnc2)cc1`, the GI50 is 82 µM (inactive) with DMS-114; > 100 µM (inactive) in the assay on DMS-273; > 100 µM (inactive) with HOP-18; > 100 µM (inactive) in the assay with KM-20L2; > 100 µM (inactive) in the assay with M19-MEL; > 100 µM (inactive) in the assay on RXF 631. The GI50 in the assay on SNB-78 was > 100 µM (inactive).
Regarding `CCOC(=O)C1N(S(=O)(=O)c2ccc(C)cc2)CCC12C(c1ccc(OC)c(OC)c1)=Nc1ccccc12` (stereo unspecified), the GI50 in the assay on DMS-114, in the assay on DMS-273, in the assay on HOP-18, in the assay with KM-20L2, with LXFL 529 and in the assay with M19-MEL was > 100 µM (inactive) each time. Moreover, the GI50 in the assay on RXF 631 is > 100 µM (inactive); in the assay on SNB-78 it was > 100 µM (inactive); in the assay with XF498, 30.1 µM (inactive).
For the compound `N#Cc1c2nc3ccccc3nc2n2ccc3ccccc3c12`, the GI50 with DMS-114, in the assay on DMS-273, in the assay with HOP-18, with LXFL 529, with M19-MEL and with SNB-78 was > 100 µM (inactive) throughout.
In the case of `COc1ccc(C(=O)O)c(Cc2ccc3ccccc3c2)c1`, the GI50 in the assay with DMS-114, with DMS-273, in the assay on HOP-18, with KM-20L2, with LXFL 529 and in the assay with M19-MEL was > 100 µM (inactive) in each case. For the same compound, the GI50 in the assay with SNB-78 and with XF498 was > 100 µM (inactive) throughout.
Turning to `CC1(c2cccc3c2C2(O)C=CC4(CCC32)OCCO4)OCCO1` (stereo unspecified), the GI50 with DMS-114, with DMS-273, in the assay with HOP-18, in the assay with KM-20L2, in the assay with LXFL 529 and in the assay on M19-MEL was > 100 µM (inactive) in each case. In addition, in the assay on SNB-78, the GI50 is > 100 µM (inactive).
With `CCN(CC)CCN(C)CC(C)(C)C(=O)/C=C/c1ccccc1`, the GI50 is 6.58 µM (inactive) with DMS-114; 13 µM (inactive) with DMS-273; 15.9 µM (inactive) in the assay on HOP-18; 11.1 µM (inactive) with KM-20L2; 12.3 µM (inactive) with LXFL 529; 11.6 µM (inactive) in the assay with M19-MEL. In addition, in the assay with XF498, the GI50 is 12.4 µM (inactive).
Turning to `CC(=O)N/C(=C\c1cccc([N+](=O)[O-])c1)c1nc2ccc3c(c2[nH]1)C(=O)c1ccccc1C3=O`, the GI50 in the assay on DMS-114 was > 37.5 µM (inactive); with KM-20L2, > 100 µM (inactive); with LXFL 529 it was 29.3 µM (inactive); in the assay on M19-MEL, > 100 µM (inactive); in the assay on RXF 631 it was 32.6 µM (inactive); in the assay on SNB-78, > 57.9 µM (inactive). Further, in the assay on XF498, the GI50 is 52.5 µM (inactive).
Take `CCOC(=O)C(=O)C(C#N)c1ccc(Cl)cc1` (stereo unspecified): the GI50 with DMS-114, in the assay on DMS-273, in the assay on KM-20L2, with LXFL 529, in the assay with M19-MEL and with SNB-78 was > 100 µM (inactive) throughout. Besides, the GI50 in the assay on XF498 was > 100 µM (inactive).
For `C/C(=N\N)C(CN(C)C)C(c1ccccc1)c1c(O)c2ccccc2oc1=O` (stereo unspecified), the GI50 with DMS-114 is 51.9 µM (inactive); with DMS-273, > 100 µM (inactive); in the assay on HOP-18, > 100 µM (inactive); in the assay on KM-20L2, > 100 µM (inactive); in the assay with LXFL 529 it was > 100 µM (inactive); in the assay with M19-MEL, 95.7 µM (inactive). Besides, the GI50 is > 100 µM (inactive) in the assay on RXF 631, > 100 µM (inactive) in the assay with SNB-78 and 36.4 µM (inactive) in the assay with XF498.
Take `COc1ccc2c(c1)CC1c3c(ccc(OC)c3O)CC2N1C` (stereo unspecified): the GI50 was 19.7 µM (inactive) in the assay on DMS-114; 22.4 µM (inactive) in the assay with DMS-273; 71.1 µM (inactive) in the assay with HOP-18; 28.4 µM (inactive) in the assay on KM-20L2; 18.3 µM (inactive) in the assay on LXFL 529; 23 µM (inactive) in the assay on M19-MEL. The results for the GI50 in the assay on RXF 631, in the assay with SNB-78 and with XF498 were 22.6 µM (inactive), 24.3 µM (inactive) and 21.3 µM (inactive), respectively.
With `N#Cc1cccc(/C=N/N/C(N)=N/O)c1`, the GI50 in the assay with DMS-273 was > 100 µM (inactive); in the assay with HOP-18, 15.7 µM (inactive); with LXFL 529 it was 39.4 µM (inactive); with M19-MEL, > 100 µM (inactive); with SNB-78, > 100 µM (inactive); in the assay with XF498, 23.8 µM (inactive).
On to `CC1=C(CO)C(=O)OC(C(C)C2CCC3C4CC5OC56C(O)C(N5CC5)=CC(=O)C6(C)C4CCC23C)C1` (stereo unspecified), for which the GI50 in the assay with DMS-114 is 2.13 µM (inactive); in the assay with DMS-273 it was 5.65 µM (inactive); with KM-20L2 it was 3.05 µM (inactive); in the assay on LXFL 529 it was 4.32 µM (inactive); in the assay with M19-MEL, 11.4 µM (inactive); in the assay on RXF 631, 11.5 µM (inactive). Also, the results for the GI50 in the assay on SNB-78 and with XF498 were 5.61 µM (inactive) and 5.3 µM (inactive), respectively.
As for `CN(C)c1ccc(/C=c2\sc3nnc(Cc4ccccc4)n3c2=O)cc1`, the GI50 in the assay on DMS-114 was 17 µM (inactive); with DMS-273, 33.7 µM (inactive); with HOP-18 it was > 10 µM (inactive); with KM-20L2, > 10 µM (inactive); in the assay with LXFL 529, > 10 µM (inactive); in the assay on M19-MEL it was > 100 µM (inactive). Moreover, the GI50 in the assay with SNB-78 and with XF498 was > 10 µM (inactive) in each case.
For the compound `C[Si](C)(C)C(Sc1ccccc1)(Sc1ccccc1)Sc1ccccc1`, the GI50 in the assay with DMS-114 was 54.8 µM (inactive); with DMS-273, > 100 µM (inactive); in the assay on KM-20L2 it was 67.1 µM (inactive); in the assay on LXFL 529, 81.5 µM (inactive); in the assay with M19-MEL it was 34.7 µM (inactive); in the assay with SNB-78, > 100 µM (inactive). For the same compound, in the assay with XF498, the GI50 is 30.8 µM (inactive).
In the case of `CC(C)N(C(=O)c1cccc(C(=O)N(C(C)C)C(C)C)c1)C(C)C`, the GI50 in the assay with DMS-114, in the assay with DMS-273, in the assay on HOP-18, with KM-20L2, in the assay on LXFL 529 and in the assay with M19-MEL was > 100 µM (inactive) throughout. The GI50 in the assay on RXF 631, in the assay with SNB-78 and with XF498 was > 100 µM (inactive) in each case.
As to `Cc1cccc(NC(=O)c2c(N)[n+]([O-])c3ccccc3[n+]2[O-])c1`, the GI50 is 9.51 µM (inactive) in the assay on DMS-273; 18.2 µM (inactive) in the assay on HOP-18; 16.6 µM (inactive) in the assay with KM-20L2; 11 µM (inactive) in the assay on LXFL 529; 8.97 µM (inactive) in the assay with M19-MEL; 1.77 µM (inactive) in the assay on RXF 631. The figures for the GI50 in the assay with SNB-78 and in the assay on XF498 were 11.9 µM (inactive) and 11.4 µM (inactive), respectively.
For `CC(=O)NC1=C(NCc2ccc(Cl)cc2)C(=O)c2ccccc2C1=O`, the GI50 in the assay with DMS-273 is 7.67 µM (inactive); in the assay on KM-20L2, 24.3 µM (inactive); in the assay on LXFL 529 it was 6.55 µM (inactive); in the assay with M19-MEL it was 5.27 µM (inactive); in the assay with SNB-78, 11 µM (inactive); in the assay with XF498, 1.44 µM (inactive).
As to `CCCCN(CCCC)c1c([N+](=O)[O-])c(=O)nc2ccccn12`, the GI50 in the assay on DMS-114 is 21.7 µM (inactive); with KM-20L2, 27.4 µM (inactive); with LXFL 529, 33 µM (inactive); in the assay with M19-MEL, 8.67 µM (inactive); in the assay with RXF 631 it was 23.4 µM (inactive); in the assay on SNB-78, 48.2 µM (inactive). Moreover, the GI50 in the assay with XF498 is 32.2 µM (inactive).
For the compound `N=C(N)NS(=O)(=O)c1ccc(NCCc2c3ccccc3nc3ccccc23)cc1`, the GI50 in the assay on DMS-114 is 28.3 µM (inactive); with DMS-273, 72.4 µM (inactive); in the assay with KM-20L2 it was > 100 µM (inactive); in the assay on LXFL 529, > 100 µM (inactive); in the assay on M19-MEL, > 100 µM (inactive); in the assay on RXF 631, 35.5 µM (inactive).
As to `Cc1ccc(-c2cc(-c3ccccc3)c(C#N)c(=O)n2C2OC(CO)C(O)C(O)C2O)cc1` (stereo unspecified), the GI50 with DMS-114, with DMS-273, in the assay with HOP-18, in the assay with KM-20L2, with LXFL 529 and with M19-MEL was > 100 µM (inactive) throughout. In addition, the GI50 in the assay with RXF 631 and with SNB-78 was > 100 µM (inactive) throughout.
On to `CCOC(=O)C1(C)CCC(C(C(=O)O)C(=O)O)CC1=O` (stereo unspecified), for which the GI50 with DMS-114, in the assay with DMS-273, in the assay with HOP-18, in the assay with KM-20L2, in the assay with LXFL 529 and in the assay with M19-MEL was > 100 µM (inactive) each time. In addition, the GI50 with RXF 631 and with SNB-78 was > 100 µM (inactive) throughout.
Consider `CNC(=S)NC(=S)N(C)C`, for which the GI50 with DMS-114 was 64.9 µM (inactive); in the assay on DMS-273, 0.869 µM (active); with HOP-18, > 100 µM (inactive); in the assay with KM-20L2, > 100 µM (inactive); in the assay on LXFL 529 it was > 100 µM (inactive); with RXF 631, > 100 µM (inactive). Besides, the GI50 with SNB-78 and in the assay on XF498 was > 100 µM (inactive) each time.
For the compound `CC(C)Cc1ccc(C(C)/C=C2\CCC(CN3CCCC3)C2=O)cc1` (stereo unspecified), the GI50 with DMS-114 is 3.8 µM (inactive); in the assay on DMS-273 it was 4.5 µM (inactive); in the assay on HOP-18, 19.2 µM (inactive); with KM-20L2, 14.4 µM (inactive); in the assay with LXFL 529, 2.15 µM (inactive); in the assay on M19-MEL, 3.84 µM (inactive). The GI50 in the assay on RXF 631 is 20.2 µM (inactive); in the assay with SNB-78, 19.4 µM (inactive); in the assay with XF498, 8.73 µM (inactive).
As for `CCC12CCCN(Cc3ccccc3)C1c1c(n(C)c3ccccc13)C(CO)C2` (stereo unspecified), the GI50 is 37.8 µM (inactive) with DMS-114; 46.5 µM (inactive) in the assay with DMS-273; 29.3 µM (inactive) in the assay on KM-20L2; 41 µM (inactive) with LXFL 529; 59 µM (inactive) with M19-MEL; 56 µM (inactive) with RXF 631. In addition, in the assay on XF498, the GI50 is 43.3 µM (inactive).

The values are drawn from ChEMBL document CHEMBL1201862, “PubChem BioAssay data set” (2004).
